Counter-ions that a name gives are not always drawn. Like-named read-outs stand apart in the source and are kept apart here.
Tests used:
IRAK4 = biological target: T1, IRAK4 (Homo sapiens, UniProt Q9NWZ3); experiment: IRAK4 MSD Biochemical Assay (1 mM ATP, 2 h); settings: room temperature
T1 construct: with 0.1 nM IRAK4, 1.6 μM of biotinylated peptide substrate and 10 μM ATP
T1 sequence (Q9NWZ3 1-460): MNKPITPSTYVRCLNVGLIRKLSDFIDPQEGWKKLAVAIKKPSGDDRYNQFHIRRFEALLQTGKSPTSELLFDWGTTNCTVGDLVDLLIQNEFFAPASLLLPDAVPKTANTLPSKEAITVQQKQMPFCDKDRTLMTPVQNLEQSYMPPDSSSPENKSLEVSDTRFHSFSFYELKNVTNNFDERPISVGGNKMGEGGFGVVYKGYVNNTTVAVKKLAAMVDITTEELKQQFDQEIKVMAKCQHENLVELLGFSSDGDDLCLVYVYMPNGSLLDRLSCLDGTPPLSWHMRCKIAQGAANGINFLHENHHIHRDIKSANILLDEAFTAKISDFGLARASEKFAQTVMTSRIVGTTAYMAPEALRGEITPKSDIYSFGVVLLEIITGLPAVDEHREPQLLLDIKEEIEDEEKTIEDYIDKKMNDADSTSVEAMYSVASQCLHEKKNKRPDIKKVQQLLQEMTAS
Outline: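 Run with 1 mM ATP and […] for 2 h, then quenched with EDTA, pH 8. The phosphorylated biotinylated peptide was captured on streptavidin plates and detected with anti-phospho-threonine antibody plus Sulfo-Tag secondary by MSD electrochemiluminescence.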

[1] = biological target: T2, human MDR1 transfected MDCK cells (Homo sapiens, UniProt P08183); experiment: MDR1-MDCK assay (efflux ratio); assay type: in vitro ADME; settings: 1 μM compound, 120 minutes incubation
T2 construct: host or cells: MDCK cells
Outline: (§1)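 Human MDR1-transfected MDCK monolayers, cultured 7 days on transwell inserts with TEER checked, were dosed with compound at 1 μM in HBSS-HEPES. Transport was measured in both A-B and B-A directions. Efflux ratio came from the directional permeabilities, with mass balance also calculated.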

MDR1 (P-gp) = biological target: T3, MDR1 (P-gp) (Homo sapiens, UniProt P08183); experiment: MDR1-MDCK assay (efflux ratio); assay type: in vitro ADME; settings: human, MDCK-MDR1, 1 μM compound, 120 minutes incubation; read-out: MDR1-MDCK Efflux Ratio; (B-A/A-B)
T3 construct: host or cells: MDCK cells
Outline: as §1

[2] = read-out: IRAK4 MSD Biochemical Assay (1 mM ATP, 2 h) IC50
[3] = IRAK4 MSD Biochemical Assay (1 mM ATP, 2 h) IC50 (nM)

T2 sequence (P08183 whole entry): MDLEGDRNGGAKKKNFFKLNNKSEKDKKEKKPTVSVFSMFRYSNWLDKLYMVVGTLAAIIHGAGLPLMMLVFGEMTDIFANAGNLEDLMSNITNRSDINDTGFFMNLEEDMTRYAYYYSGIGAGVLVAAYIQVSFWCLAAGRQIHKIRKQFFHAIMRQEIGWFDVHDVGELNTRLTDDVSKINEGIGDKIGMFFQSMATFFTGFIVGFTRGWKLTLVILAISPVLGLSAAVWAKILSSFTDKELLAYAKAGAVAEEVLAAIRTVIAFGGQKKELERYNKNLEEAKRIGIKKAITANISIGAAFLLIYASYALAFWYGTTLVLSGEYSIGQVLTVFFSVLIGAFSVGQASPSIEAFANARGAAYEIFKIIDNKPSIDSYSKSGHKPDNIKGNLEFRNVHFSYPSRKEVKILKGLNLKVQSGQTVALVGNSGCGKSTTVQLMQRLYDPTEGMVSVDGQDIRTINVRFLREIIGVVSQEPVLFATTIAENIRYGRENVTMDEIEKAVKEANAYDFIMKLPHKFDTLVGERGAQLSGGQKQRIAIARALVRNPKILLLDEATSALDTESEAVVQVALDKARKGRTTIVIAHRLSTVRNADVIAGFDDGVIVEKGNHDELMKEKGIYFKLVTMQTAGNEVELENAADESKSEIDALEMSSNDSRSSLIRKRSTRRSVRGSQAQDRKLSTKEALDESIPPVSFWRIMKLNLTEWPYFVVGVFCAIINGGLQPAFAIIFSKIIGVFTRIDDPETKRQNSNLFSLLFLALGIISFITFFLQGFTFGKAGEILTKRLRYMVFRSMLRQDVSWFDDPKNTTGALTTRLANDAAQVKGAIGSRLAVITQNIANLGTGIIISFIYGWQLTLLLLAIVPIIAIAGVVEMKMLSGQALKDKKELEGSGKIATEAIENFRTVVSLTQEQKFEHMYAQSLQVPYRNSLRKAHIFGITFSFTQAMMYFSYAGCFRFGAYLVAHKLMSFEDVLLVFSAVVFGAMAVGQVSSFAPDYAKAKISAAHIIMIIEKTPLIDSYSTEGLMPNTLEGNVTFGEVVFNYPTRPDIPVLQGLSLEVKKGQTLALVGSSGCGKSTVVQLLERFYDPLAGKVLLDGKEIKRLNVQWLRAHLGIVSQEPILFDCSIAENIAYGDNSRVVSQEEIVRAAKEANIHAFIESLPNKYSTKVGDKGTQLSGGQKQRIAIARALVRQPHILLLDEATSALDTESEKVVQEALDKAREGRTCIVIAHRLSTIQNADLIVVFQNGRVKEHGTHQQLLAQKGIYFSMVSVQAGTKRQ
T3 sequence (P08183 whole entry): as above

IC50 (IRAK4; [2]) [nM] | MDR1-MDCK Efflux Ratio; (B-A/A-B) [1] | efflux ratio at 120 min, 1 μM (MDR1 (P-gp)) | Molecule | IC50 (IRAK4; [3]) [nM]
0.1 | 2.0 |  | Cc1cnc2c(NC(=O)c3cc4cn(C5CCCOC5)nc4nc3OC3CCC3)cnn2c1 (single isomer, unassigned) [Example 132] | 
1 | 2.1 |  | Cc1ccn2ncc(NC(=O)c3cc4cn(C5CCCOC5)nc4nc3OC3CCC3)c2n1 (single isomer, unassigned) [Example 134] | 
0.6 | 2.3 |  | COc1cnc2c(NC(=O)c3cc4cn([C@@]56CC[C@@](C)(C5)OC6)nc4cc3OC(C)C)cnn2c1 (single isomer, unassigned) [Example 135] | 
1.4 | 2.3 |  | COc1cnc2c(NC(=O)c3cc4cn([C@]56CC[C@](C)(C5)OC6)nc4cc3OC(C)C)cnn2c1 (single isomer, unassigned) [Example 136] | 
2.4 |  | 0.7 | COc1cc2nn(C34COC(C)(C3)C4)cc2cc1C(=O)Nc1cccc(C(F)F)n1 [Example 87, N-(6-(difluoromethyl)pyridin-2-yl)-6-methoxy-2-(1-methyl-2-oxabicyclo[2.1.1]hexan-4-yl)-2H-indazole-5-carboxamide trifluoroacetate] | 
0.1 |  | 0.5 | CC(C)Oc1cc2nn(C34COC(C)(C3)C4)cc2cc1C(=O)Nc1cccc(C(F)F)n1 [Example 88, N-(6-(difluoromethyl)pyridin-2-yl)-6-isopropoxy-2-(1-methyl-2-oxabicyclo[2.1.1]hexan-4-yl)-2H-indazole-5-carboxamide trifluoroacetate] | 
1 |  | 0.6 | COc1cccc(NC(=O)c2cc3cn(C45COC(C)(C4)C5)nc3cc2OC(C)C)n1 [Example 89, 6-Isopropoxy-N-(6-methoxypyridin-2-yl)-2-(1-methyl-2-oxabicyclo[2.1.1]hexan-4-yl)-2H-indazole-5-carboxamide trifluoroacetae] | 
0.6 |  | 0.7 | COc1ncccc1NC(=O)c1cc2cn(C34COC(C)(C3)C4)nc2cc1OC(C)C [Example 90, 6-Isopropoxy-N-(2-methoxypyridin-3-yl)-2-(1-methyl-2-oxabicyclo[2.1.1]hexan-4-yl)-2H-indazole-5-carboxamide trifluoroacetate] | 
4.8 |  | 1.6 | CC(C)Oc1cc2nn(C34COC(C)(C3)C4)cc2cc1C(=O)Nc1ccn(C)n1 [Example 92, 6-Isopropoxy-N-(1-methyl-1H-pyrazol-3-yl)-2-(1-methyl-2-oxabicyclo[2.1.1]hexan-4-yl)-2H-indazole-5-carboxamide] | 
0.4 |  | 1.4 | CC(C)Oc1cc2nn(C34COC(C)(C3)C4)cc2cc1C(=O)Nc1cnn2cccnc12 [Example 93, 6-Isopropoxy-2-(1-methyl-2-oxabicyclo[2.1.1]hexan-4-yl)-N-(pyrazolo[1,5-a]pyrimidin-3-yl)-2H-indazole-5-carboxamide] | 
1.3 |  | 1.4 | Cc1cnc2c(NC(=O)c3cc4cn(C56COC(C)(C5)C6)nc4cc3OC(C)C)cnn2c1 [Example 94, 6-Isopropoxy-2-(1-methyl-2-oxabicyclo[2.1.1]hexan-4-yl)-N-(6-methylpyrazolo[1,5-a]pyrimidin-3-yl)-2H-indazole-5-carboxamide] | 
0.3 |  | 0.9 | CC(C)Oc1cc2nn(C34COC(C)(C3)C4)cc2cc1C(=O)Nc1cnn2cc(Cl)cnc12 [Example 95, N-(6-chloropyrazolo[1,5-a]pyrimidin-3-yl)-6-isopropoxy-2-(1-methyl-2-oxabicyclo[2.1.1]hexan-4-yl)-2H-indazole-5-carboxamide] | 
1.4 |  | 1.6 | CC(C)Oc1cc2nn(C34COC(C)(C3)C4)cc2cc1C(=O)Nc1cnn2cc(F)cnc12 [Example 96, N-(6-fluoropyrazolo[1,5-a]pyrimidine-3-yl)-6-isopropoxy-2-(1-methyl-2-oxabicyclo[2.1.1]hexan-4-yl)-2H-indazole-5-carboxamide trifluoroacetate] | 
0.2 |  | 1.1 | CC(C)Oc1cc2nn(C34CCC(C)(C3)OC4)cc2cc1C(=O)Nc1cccc(C(F)F)n1 (stereo not shown) [Example 97, N-(6-(difluoromethyl)pyridin-2-yl)-6-isopropoxy-2-(1-methyl-2-oxabicyclo[2.2.1]heptan-4-yl)-2H-indazole-5-carboxamide] | 
0.5 |  | 1 | CC(C)Oc1cc2nn(C34CCC(C)(C3)OC4)cc2cc1C(=O)Nc1cnn2cccnc12 (stereo not shown) [Example 98, 6-Isopropoxy-2-(1-methyl-2-oxabicyclo[2.2.1]heptan-4-yl)-N-(pyrazolo[1,5-a]pyrimidin-3-yl)-2H-indazole-5-carboxamide] | 
0.3 |  | 1.2 | Cc1cnc2c(NC(=O)c3cc4cn(C56CCC(C)(C5)OC6)nc4cc3OC(C)C)cnn2c1 (stereo not shown) [Example 99, 6-Isopropoxy-2-(1-methyl-2-oxabicyclo[2.2.1]heptan-4-yl)-N-(6-methylpyrazolo[1,5-a]pyrimidin-3-yl)-2H-indazole-5-carboxamide trifluoroacetate] | 
4.1 |  | 1.5 | CC(C)Oc1cc2nn(C34CCC(C)(C3)OC4)cc2cc1C(=O)Nc1ccn(C)n1 (stereo not shown) [Example 101, 6-Isopropoxy-N-(1-methyl-1H-pyrazol-3-yl)-2-(1-methyl-2-oxabicyclo[2.2.1]heptan-4-yl)-2H-indazole-5-carboxamide] | 
1.9 |  | 0.9 | CC(C)Oc1cc2nn(C34CCC(C)(CC3)OC4)cc2cc1C(=O)Nc1ccn(C)n1 [Example 103, 6-Isopropoxy-N-(1-methyl-1H-pyrazol-3-yl)-2-(1-methyl-2-oxabicyclo[2.2.2]octan-4-yl)-2H-indazole-5-carboxamide] | 
20 |  | 1.1 | CC(C)Oc1c(C(=O)Nc2cccc(C(F)F)n2)cc2cn(C3CCOCC3)nc2c1Cl [Example 124, 7-Chloro-N-(6-(difluoromethyl)pyridin-2-yl)-6-isopropoxy-2-(tetrahydro-2H-pyran-4-yl)-2H-indazole-5-carboxamide Trifluoroacetate] | 

Molecule | IC50 (IRAK4; [2]) [nM] | MDR1-MDCK Efflux Ratio; (B-A/A-B) [1] | efflux ratio at 120 min, 1 μM (MDR1 (P-gp)) | IC50 (IRAK4; [3]) [nM]
6-Ethoxy-N-(2-methoxypyridin-3-yl)-2-(1-methyl-2-oxabicyclo[2.1.1]hexan-4-yl)-2H-indazole-5-carboxamide tfifluoroacetate [Example 85] | 0.9 | 0.8 |  | 
Cn1cccc(NC(=O)c2cc3cn(C45COC(C)(C4)C5)nc3cc2OC2CCC2)c1=O [Example 83, 6-Cyclobutoxy-N-(1-methyl-2-oxo-1,2-dihydropyridin-3-yl)-2-(1-methyl-2-oxabicyclo[2.1.1]hexan-4-yl)-2H-indazole-5-carboxamide trifluoroacetate] | 1.4 |  | 1.2 | 
CC12CC(n3cc4cc(C(=O)Nc5cccn(C(F)F)c5=O)c(OC5CCC5)cc4n3)(CO1)C2 [Example 84, 6-Cyclobutoxy-N-(1-(difluoromethyl)-2-oxo-1,2-dihydropyridin-3-yl)-2-(1-methyl-2-oxabicyclo[2.1.1]hexan-4-yl)-2H-indazole-5-carboxamide trifluoroacetate] | 0.5 |  | 0.9 | 
CCOc1cc2nn(C34COC(C)(C3)C4)cc2cc1C(=O)Nc1cccn(C)c1=O [Example 86, 6-Ethoxy-N-(1-methyl-2-oxo-1,2-dihydropyridin-3-yl)-2-(1-methyl-2-oxabicyclo[2.1.1]hexan-4-yl)-2H-indazole-5-carboxamide tfifluoroacetate] |  |  | 1.8 | 3.7
CC(C)Oc1cc2nn(C34COC(C)(C3)C4)cc2cc1C(=O)Nc1cccn(C(F)F)c1=O [Example 91, N-(1-(difluoromethyl)-2-oxo-1,2-dihydropyridin-3-yl)-6-isopropoxy-2-(1-methyl-2-oxabicyclo[2.1.]hexan-4-yl)-2H-indazole-5-carboxamide tfifluoroacetate] |  |  | 0.8 | 0.3
CC12CCC(n3cc4cc(C(=O)Nc5ccn(C(F)F)n5)c(OC5CCC5)cc4n3)(CC1)CO2 [Example 139, 6-cyclobutoxy-N-(1-(difluoromethyl)-1H-pyrazol-3-yl)-2-(1-methyl-2-oxabicyclo[2.2.2]octan-4-yl)-2H-indazole-5-carboxamide] | 0.9 |  | 0.8 | 
Cn1ccc(NC(=O)c2cc3cn(C45CCC(C)(CC4)OC5)nc3cc2OC2CCC2)n1 [Example 140, 6-cyclobutoxy-N-(1-methyl-1H-pyrazol-3-yl)-2-(1-methyl-2-oxabicyclo[2.2.2]octan-4-yl)-2H-indazole-5-carboxamide] | 0.9 |  | 0.9 | 
